Laboratory results: paper PMC10226132, “First-in-Class Selective Inhibitors of the Lysine Acetyltransferase KAT8” (Journal of Medicinal Chemistry, 2023)

What was measured:
Assay type in all cases: cell-based, human
[1] = tested on: H4K16Ac in HT29 cells; assay: Western blot of H4K16Ac and KAT8 levels in HT29 cells; settings: increasing concentrations, 24 h
Description: For WB experiments, the cells were lysed in RIPA buffer supplemented with 1× […] protease inhibitor cocktail (Sigma-Aldrich, S8830); 20 μg of total protein was resolved in 13.5% gels by SDS-PAGE. Then, the proteins were transferred to nitrocellulose membranes (Biorad Laboratories). Membranes were blocked for 1 h and incubated overnight with the appropriate primary antibody at 4 °C. After incubation, membranes were washed and incubated with the appropriate secondary antibody (Biorad Laboratories) for 1 h at room temperature. Following primary rabbit monoclonal antibodies H4K16Ac (1:1000, E2B8W, Rabbit mAb#13534, Cell Signalling Technology), KAT8 (1:1000, D5T3R Rabbit mAb #46862 Cell Signalling Technology), GAPDH (1:1000, sc-32233, Santa Cruz Biotechnologies), anti-LC3B (Sigma-Aldrich, L7543), anti-SQSTM1/p62 (Santa Cruz Biotechnology, sc-28,359), and anti-GAPDH (Santa Cruz Biotechnology, sc-32,233). Secondary antibodies: anti-mouse (Bio-Rad Laboratories, 1,706,515) or anti-rabbit (Bio-Rad Laboratories, 1,706,516) IgG-horseradish peroxidase-conjugated antibodies. Detection was performed by ECL Western Blotting Substrate (Biorad Laboratories). Images of blots were acquired through the ChemiDoc Imaging Systems (Biorad Laboratories). The band signals were quantified using ImageJ, and values were normalized to relative controls, depending on the analysis.

[2] = tested on: HT29 cells; assay: MTT cell proliferation assay, HT29; settings: for antiproliferative activity in HT29: 10, 25, 50, 100 μM; for IC50: Homo sapiens, HT-29, 72 h treatment, MTT
Excerpt: (§1) Human commercially available AML U937, breast cancer MCF7, lung adenocarcinoma NCI-H460, H1299 and A-549, glioblastoma U251, B lymphocyte AHH1 cell lines were maintained in compete 10% foetal bovine serum (FBS,) RPMI 1640 (Euroclone, Milan, IT) medium. Human commercially available colon cancer HCT116 and HT29 lines and cervix adenocarcinoma HeLa cells were maintained in compete 10% FBS Dulbecco’s Modified Eagle Medium (DMEM) high glucose medium (Euroclone). L-Glutamine, FBS, and penicillin streptomycin mixture added to medium were obtained from Euroclone. All cell lines were cultured at 37 °C in a humidified atmosphere of 5% CO2:95% air and were tested for mycoplasma contamination routinely by RT-PCR.
(§2) For analysis of cell proliferation, cells were plated in sextuplicate on 96-well plates in complete media. After 24 h, cells were exposed to different drugs for 72 h. The inhibitory effect of different drugs was assessed by MTT (Sigma, St. Louis, MO, USA) colorimetric assays as previously reported.[67] Aqueous DMSO (0.5% v/v) was used as a control (untreated). The results are reported as “viability of drug-treated cells/viability of untreated cells” × 100 and represent the average ±SD of three independent experiments. IC50 values were using fitted by nonlinear regression using GraphPad Prism 8.0.

[3] = tested on: HCT116 cells; assay: MTT cell proliferation assay, HCT116; settings: for antiproliferative activity in HCT116: 10, 25, 50, 100 μM, 72 h; for IC50: Homo sapiens, HCT-116, 72 h treatment, MTT
Excerpt: as §1, §2

[4] = tested on: HeLa cells; assay: MTT cell proliferation assay, HeLa; settings: 10, 25, 50, 100 μM, 72 h
Excerpt: as §1, §2

[5] = tested on: U937 cells; assay: MTT cell proliferation assay, U937; settings: for antiproliferative activity in U937: 10, 25, 50, 100 μM; for IC50: 72 h treatment, MTT
Excerpt: as §1, §2

[6] = tested on: HT29 cells; assay: Cell cycle analysis by propidium iodide staining, HT29; settings: 72 h
Description: (§3) For the analysis of the progression of cells through cell cycle phases and sub-G1 peak identification, 24 h after plating, cells were treated with the different compounds. After 72 h, both floating and adherent cells were collected and fixed with cold 70% ethanol. At least 24 h after fixation, cells were incubated with 0.025 mg/mL Propidium Iodide for 15 min at room temperature and analyzed. For Annexin V analysis, 24 h after plating, cells were treated with 50 and 100 μM of the compounds. In the case of chloroquine experiments, 10 μM chloroquine (Sigma-Aldrich, A9165) was added 30 min before compounds. 72 h after treatment, both floating and adherent cells were collected and stained with an Annexin V-FITC apoptosis detection kit (ENZO #ALX-850-020-KI). Samples were incubated 15 min in the dark at rt, and 10,000 events were then analyzed.

[7] = tested on: HeLa cells; assay: Annexin V/PI analysis, HeLa; settings: 50 and 100 μM, 72 h, compared to control
Description: as §3

[8] = tested on: UCP2 mRNA in HCT116 cells; assay: qRT-PCR of UCP2 mRNA in HCT116 cells; settings: HCT116, 100 μM, 48 h
Description: Total RNA was isolated from cells after 48 h of treatment with compounds 19 and 34 (100 μM) using TRIzol reagent (Life Technologies) following the manufacturer’s instructions. cDNA was obtained by reverse transcription using a SensiFast cDNA Synthesis kit (Meridian Bioscience). qRT-PCR was performed using a Luna Universal qPCR Master Mix (BioLabs) and detected by Quant Studio3. The fold change of gene expression data was calculated by using the ddCT method. All samples were run in sextupled, and the results were presented as mean ± SEM. Detailed sequence of the primers used in the experiments can be found in the list below. • UCP2—Forward: 5′-[…]-3′ • Reverse 5′-[…]-3′ • HOXA9 — Forward: 5′-[…]-3′ • Reverse: 5′-[…]-3′

| SMILES | KAT8 expression level (WB) [1] | histone H4K16 acetylation levels (WB) [1] | antiproliferative activity in HT29 ([2]; 72 h) | IC50 [2] [µM] | antiproliferative activity in HCT116 [3] | IC50 [3] [µM] | antiproliferative activity in HeLa [4] | antiproliferative activity in U937 ([5]; 72 h) | inhibition at 50 µM ([5]; Homo sapiens, U-937, 50 μM, 72 h) [%] | inhibition at 100 µM ([5]; Homo sapiens, U-937, 100 μM, 72 h) [%] | IC50 ([5]; Homo sapiens, U-937) [µM] | change in the different stages of cell cycle, HT29 [6] | apoptotic cell population (Annexin V), HeLa [7] | UCP2 mRNA levels [8] | decrease of cell viability, HT29 ([2]; 100 μM, 72 h) [%] |
| --- | --- | --- | --- | --- | --- | --- | --- | --- | --- | --- | --- | --- | --- | --- | --- |
| CC1=NN(c2ccc(C(=O)O)cc2)C(=O)/C1=C\c1ccc[nH]1 [Compound 19, (Z)-4-(4-((1H-Pyrrol-2-yl)methylene)-3-methyl-5-oxo-4,5-dihydro-1H-pyrazol-1-yl)benzoic Acid] | no consistent variation in KAT8 levels | induced a decrease in histone H4 acetylation levels | a certain degree of antiproliferative activity | > 100 | dose-dependent antiproliferative effects | 39.4 ± 8.2 | a certain degree of antiproliferative activity | dose-dependent antiproliferative effects | ~70 | > 80 | 30.1 ± 1.7 | no significative change | only a slight increase in apoptotic cell population | reduce the mRNA levels of UCP2 |  |
| O=C(O)c1ccc(N2N=C(c3ccccc3)/C(=C/c3ccc[nH]3)C2=O)cc1 [Compound 34, (Z)-4-(4-((1H-Pyrrol-2-yl)methylene)-5-oxo-3-phenyl-4,5-dihydro-1H-pyrazol-1-yl)benzoic Acid] | no consistent variation in KAT8 levels | induced a decrease in histone H4 acetylation levels | a certain degree of antiproliferative activity | 54 ± 10.9 | dose-dependent antiproliferative effects | 46.6 ± 11.5 | a certain degree of antiproliferative activity | dose-dependent antiproliferative effects |  |  | 51.7 ± 9.5 | no significative change | only a slight increase in apoptotic cell population | reduce the mRNA levels of UCP2 | 70 |
